Here are results for 24 compounds from US10519177B2, “Heterocyclic compounds and uses thereof” (Plexxikon Inc., priority 2013, dated 2019).

This assay has as its system bromodomain. The assay is described as follows: at least one of the bromodomain cell assays of Example 57. Type of assay: cell-based. The settings on record: at least one of the bromodomain cell assays described in Example 57; read-out: IC50 in at least one of the bromodomain cell assays.

The structures appear in SMILES notation. A value given as a limit tells only on which side of the number the result lay.

As for `Cc1noc(C)c1-c1ccc2c(-c3ccc(C4(C(=O)O)CC4)cc3)cn(CC3CCC(F)(F)CC3)c2c1` [P-0748, 1-[4-[1-[(4,4-difluorocyclohexyl)methyl]-6-(3,5-dimethylisoxazol-4-yl)indol-3-yl]phenyl]cyclopropanecarboxylic acid], the IC50 is less than 10 µM.

As for `Cc1noc(C)c1-c1ccc2c(-c3ccc(B(O)O)cc3)cn(CC3CCC(F)(F)CC3)c2c1` [P-0749, [4-[1-[(4,4-difluorocyclohexyl)methyl]-6-(3,5-dimethylisoxazol-4-yl)indol-3-yl]phenyl]boronic acid], the IC50 was less than 10 µM.

As for `Cc1noc(C)c1-c1ccc2c(-c3ccc([N+](=O)[O-])nc3)cn(CC3CCC(F)(F)CC3)c2c1` [P-0750, 4-[1-[(4,4-difluorocyclohexyl)methyl]-3-(6-nitro-3-pyridyl)indol-6-yl]-3,5-dimethyl-isoxazol], the IC50 was less than 10 µM.

Consider `Cc1noc(C)c1-c1ccc2c(-c3ccc(C(=O)O)cc3)cn([C@@H](c3ccccc3)c3ccccn3)c2c1` [P-0751, 4-[6-(3,5-dimethylisoxazol-4-yl)-1-[(S)-phenyl(2-pyridyl)methyl]indol-3-yl]benzoic acid], for which the IC50 is less than 10 µM.

For `CCOC(=O)c1ccc(-c2cn([C@@H](c3ccccc3)c3ccccn3)c3cc(-c4c(C)noc4C)ccc23)cc1` [P-0752, ethyl 4-[6-(3,5-dimethylisoxazol-4-yl)-1-[(S)-phenyl(2-pyridyl)methyl]indol-3-yl]benzoate], the IC50 was less than 10 µM.

For `Cc1noc(C)c1-c1ccc2c(-c3ccc(CO)cc3)cn([C@@H](c3ccccc3)c3ccccn3)c2c1` [P-0753, [4-[6-(3,5-dimethylisoxazol-4-yl)-1-[(S)-phenyl(2-pyridyl)methyl]indol-3-yl]phenyl]methanol], the IC50 was less than 10 µM.

On to `Cc1noc(C)c1-c1ccc2c(-c3ccc(C#N)nc3)cn([C@@H](c3ccccc3)c3ccccn3)c2c1` [P-0754, 5-[6-(3,5-dimethylisoxazol-4-yl)-1-[(S)-phenyl(2-pyridyl)methyl]indol-3-yl]pyridine-2-carbonitrile], for which the IC50 was less than 10 µM.

In the case of `Cc1noc(C)c1-c1ccc2c(-c3ccc(C(=O)O)cc3)cn([C@H](c3ccccc3)c3ccccn3)c2c1` [P-0755, 4-[6-(3,5-dimethylisoxazol-4-yl)-1-[(R)-phenyl(2-pyridyl)methyl]indol-3-yl]benzoic acid], the IC50 was less than 10 µM.

With `CCOC(=O)c1ccc(-c2cn([C@H](c3ccccc3)c3ccccn3)c3cc(-c4c(C)noc4C)ccc23)cc1` [P-0756, ethyl 4-[6-(3,5-dimethylisoxazol-4-yl)-1-[(R)-phenyl(2-pyridyl)methyl]indol-3-yl]benzoate], the IC50 is less than 10 µM.

As to `Cc1noc(C)c1-c1ccc2c(-c3ccc(CO)cc3)cn([C@H](c3ccccc3)c3ccccn3)c2c1` [P-0757, [4-[6-(3,5-dimethylisoxazol-4-yl)-1-[(R)-phenyl(2-pyridyl)methyl]indol-3-yl]phenyl]methanol], the IC50 was less than 10 µM.

On to `Cc1noc(C)c1-c1ccc2c(-c3ccc(C#N)nc3)cn([C@H](c3ccccc3)c3ccccn3)c2c1` [P-0758, 5-[6-(3,5-dimethylisoxazol-4-yl)-1-[(R)-phenyl(2-pyridyl)methyl]indol-3-yl]pyridine-2-carbonitrile], for which the IC50 is less than 10 µM.

With `Cc1cc(-c2cnc3c(-c4ccc(C(=O)O)cc4)cn(CC4CCCCC4)c3c2)cn(C)c1=O` [P-0759, 4-[1-(cyclohexylmethyl)-6-(1,5-dimethyl-6-oxo-3-pyridyl)pyrrolo[3,2-b]pyridin-3-yl]benzoic acid], the IC50 is less than 10 µM.

For the compound `Cc1cc(-c2ccc3c(-c4ccc(C(=O)O)cc4)cn(CC4CCCCC4)c3c2)cn(C)c1=O` [P-0760, 4-[1-(cyclohexylmethyl)-6-(1,5-dimethyl-6-oxo-3-pyridyl)indol-3-yl]benzoic acid], the IC50 is less than 10 µM.

Consider `Cc1cc(-c2cnc3c(-c4ccc(C(=O)O)cc4)cn([C@@H](C)c4ccccn4)c3c2)cn(C)c1=O` [P-0761, 4-[6-(1,5-dimethyl-6-oxo-3-pyridyl)-1-[(1S)-1-(2-pyridyl)ethyl]pyrrolo[3,2-b]pyridin-3-yl]benzoic acid], for which the IC50 was less than 10 µM.

Regarding `Cc1cc(-c2ccc3c(-c4ccc(C(=O)O)cc4)cn([C@@H](C)c4ccccn4)c3c2)cn(C)c1=O` [P-0762, 4-[6-(1,5-dimethyl-6-oxo-3-pyridyl)-1-[(1S)-1-(2-pyridyl)ethyl]indol-3-yl]benzoic acid], the IC50 was less than 10 µM.

As for `Cn1cc(-c2ccc3c(-c4ccc(C(=O)O)cc4)cn(CC4CCCCC4)c3c2)cc(Cl)c1=O` [P-0763, 4-[6-(5-chloro-1-methyl-6-oxo-3-pyridyl)-1-(cyclohexylmethyl)indol-3-yl]benzoic acid], the IC50 was less than 10 µM.

On to `Cn1cc(-c2cnc3c(-c4ccc(C(=O)O)cc4)cn(CC4CCCCC4)c3c2)cc(Cl)c1=O` [P-0764, 4-[6-(5-chloro-1-methyl-6-oxo-3-pyridyl)-1-(cyclohexylmethyl)pyrrolo[3,2-b]pyridin-3-yl]benzoic acid], for which the IC50 is less than 10 µM.

`C[C@@H](c1ccccn1)n1cc(-c2ccc(C(=O)O)cc2)c2ccc(-c3cc(Cl)c(=O)n(C)c3)cc21` [P-0765, 4-[6-(5-chloro-1-methyl-6-oxo-3-pyridyl)-1-[(1S)-1-(2-pyridyl)ethyl]indol-3-yl]benzoic acid]: the IC50 is less than 10 µM.

In the case of `C[C@@H](c1ccccn1)n1cc(-c2ccc(C(=O)O)cc2)c2ncc(-c3cc(Cl)c(=O)n(C)c3)cc21` [P-0766, 4-[6-(5-chloro-1-methyl-6-oxo-3-pyridyl)-1-[(1S)-1-(2-pyridyl)ethyl]pyrrolo[3,2-b]pyridin-3-yl]benzoic acid], the IC50 is less than 10 µM.

As to `Cc1noc(C)c1-c1cnc2c(-c3ccc(C(=O)O)cc3)cn(CC3(C)COC3)c2c1` [P-0767, 4-[6-(3,5-dimethylisoxazol-4-yl)-1-[(3-methyloxetan-3-yl)methyl]pyrrolo[3,2-b]pyridin-3-yl]benzoic acid], the IC50 was less than 10 µM.

`Cc1noc(C)c1-c1cnc2c(-c3ccc(C(=O)O)cc3)cn(CC3CCCCO3)c2c1` (stereo not drawn) [P-0768, 4-[6-(3,5-dimethylisoxazol-4-yl)-1-(tetrahydrpyran-2-ylmethyl)pyrrolo[3,2-b]pyridin-3-yl]benzoic acid]: the IC50 is less than 10 µM.

Turning to `Cc1noc(C)c1-c1cnc2c(-c3ccc(C(=O)O)cc3)cn(CC3CCOCC3)c2c1` [P-0769, 4-[6-(3,5-dimethylisoxazol-4-yl)-1-(tetrahydropyran-4-ylmethyl)pyrrolo[3,2-b]pyridin-3-yl]benzoic acid], the IC50 was less than 10 µM.

Turning to `Cc1noc(C)c1-c1cnc2c(-c3ccc(CC(=O)O)cc3)cn(CC3CCOCC3)c2c1` [P-0771, 2-[4-[6-(3,5-dimethylisoxazol-4-yl)-1-(tetrahydropyran-4-ylmethyl)pyrrolo[3,2-b]pyridin-3-yl]phenyl]acetic acid], the IC50 is less than 10 µM.

For the compound `Cc1noc(C)c1-c1cnc2c(-c3ccc(C4(C(=O)O)CC4)cc3)cn(CC3CCOCC3)c2c1` [P-0772, 1-[4-[6-(3,5-dimethylisoxazol-4-yl)-1-(tetrahydropyran-4-ylmethyl)pyrrolo[3,2-b]pyridin-3-yl]phenyl]cyclopropanecarboxylic acid], the IC50 was less than 10 µM.

The term IC50 denotes the concentration at which inhibition is half-maximal.
